The target in test [1] is T1, Nav1.5 (Homo sapiens, UniProt Q14524).
T1 construct: expressed in transfected cells
Description: Inhibition of Nav1.5 as measured using manual patch clamp. It is filed as cell-based. From the text:
(§1) Patch-clamp electrophysiology is considered the gold standard technique for investigation of ion channel function and pharmacology. Using this method, sodium channel currents can be measured in cells, which stably (or transiently) express the sodium channel subtype of interest. Application of compounds during such experiments provides a functional measure of the activity and potency of compounds affecting the ion channel of interest.
Electrophysiological studies can also be performed using the whole cell configuration of the standard manual patch clamp technique as described in the literature (e.g. Pflugers Arch., 1981, 391(2), 85-100). In this assay, cells that express the voltage-gated sodium channel protein of interest are exposed to the drugs by conventional microperfusion systems, or by a home-built perfusion system. A suitable voltage stimulus protocol is used to activate the voltage-gated sodium channels.
(§2) A suitable voltage stimulus protocol is used to activate voltage-gated sodium channel proteins of interest. A typical stimulus protocol may consist of sweeps of sequential voltage pulses starting from a holding potential (i.e. −65 mV), to a more positive and depolarising test pulse potential (i.e. −10 mV) and finally to a more negative and hyperpolarising potential (i.e. −100 mV). According to the biophysics of the voltage-gated ion channel of interest and interest in channel configuration the voltages and durations of the pulses as well as the overall frequency of sweeps applied might vary. Accordingly, a stimulus protocol was designed to assess compounds due to their potential to block NaV1.7 channels primarily in inactivated state. Selectivity over other voltage-gated sodium channel members was assessed by protocols that reflect the native function of the channels (i.e. heart rate or firing of neurons).
Electrophysiological studies can also be performed using the whole cell configuration of the standard manual patch clamp technique as described in the literature (e.g. Pflugers Arch., 1981, 391(2), 85-100). In this assay, cells that express the human voltage-gated sodium channel protein of interest are exposed to the drugs by conventional microperfusion systems, or by a home-built perfusion system. A suitable voltage stimulus protocol is used to activate the voltage-gated sodium channels. A suitable voltage stimulus protocol may consist of sequential voltage pulses from a holding potential, each first hyperpolarizing the cell, then depolarizing the channels for a brief period. A particularly suitable holding potential may be a voltage allowing a fraction of channels to remain in an inactivated state, like −60 mV. A suitable hyperpolarizing voltage and duration may be −120 mV for 100 ms, and depolarization voltage and duration may be −20 mV for 25 ms, and a suitable frequency of pulses may be 0.1 Hz, but may also have other parameters. Accordingly, a stimulus protocol was designed to assess compounds due to their potential to block NaV1.7 channels primarily in inactivated state. Selectivity over other voltage-gated sodium channel members was assessed by protocols that reflect the native function of the channels (i.e. heart rate or firing of neurons).
Inhibition of Nav1.5 by Compounds of formula (I) as measured using manual patch clamp
Background: The patch-clamp technique gives a direct electrical read-out from membranes.

The target of test [2] is T2, Nav 1.7 (Homo sapiens, UniProt Q15858).
T2 construct: expressed in transfected cells
T2 sequence (Q15858 whole entry): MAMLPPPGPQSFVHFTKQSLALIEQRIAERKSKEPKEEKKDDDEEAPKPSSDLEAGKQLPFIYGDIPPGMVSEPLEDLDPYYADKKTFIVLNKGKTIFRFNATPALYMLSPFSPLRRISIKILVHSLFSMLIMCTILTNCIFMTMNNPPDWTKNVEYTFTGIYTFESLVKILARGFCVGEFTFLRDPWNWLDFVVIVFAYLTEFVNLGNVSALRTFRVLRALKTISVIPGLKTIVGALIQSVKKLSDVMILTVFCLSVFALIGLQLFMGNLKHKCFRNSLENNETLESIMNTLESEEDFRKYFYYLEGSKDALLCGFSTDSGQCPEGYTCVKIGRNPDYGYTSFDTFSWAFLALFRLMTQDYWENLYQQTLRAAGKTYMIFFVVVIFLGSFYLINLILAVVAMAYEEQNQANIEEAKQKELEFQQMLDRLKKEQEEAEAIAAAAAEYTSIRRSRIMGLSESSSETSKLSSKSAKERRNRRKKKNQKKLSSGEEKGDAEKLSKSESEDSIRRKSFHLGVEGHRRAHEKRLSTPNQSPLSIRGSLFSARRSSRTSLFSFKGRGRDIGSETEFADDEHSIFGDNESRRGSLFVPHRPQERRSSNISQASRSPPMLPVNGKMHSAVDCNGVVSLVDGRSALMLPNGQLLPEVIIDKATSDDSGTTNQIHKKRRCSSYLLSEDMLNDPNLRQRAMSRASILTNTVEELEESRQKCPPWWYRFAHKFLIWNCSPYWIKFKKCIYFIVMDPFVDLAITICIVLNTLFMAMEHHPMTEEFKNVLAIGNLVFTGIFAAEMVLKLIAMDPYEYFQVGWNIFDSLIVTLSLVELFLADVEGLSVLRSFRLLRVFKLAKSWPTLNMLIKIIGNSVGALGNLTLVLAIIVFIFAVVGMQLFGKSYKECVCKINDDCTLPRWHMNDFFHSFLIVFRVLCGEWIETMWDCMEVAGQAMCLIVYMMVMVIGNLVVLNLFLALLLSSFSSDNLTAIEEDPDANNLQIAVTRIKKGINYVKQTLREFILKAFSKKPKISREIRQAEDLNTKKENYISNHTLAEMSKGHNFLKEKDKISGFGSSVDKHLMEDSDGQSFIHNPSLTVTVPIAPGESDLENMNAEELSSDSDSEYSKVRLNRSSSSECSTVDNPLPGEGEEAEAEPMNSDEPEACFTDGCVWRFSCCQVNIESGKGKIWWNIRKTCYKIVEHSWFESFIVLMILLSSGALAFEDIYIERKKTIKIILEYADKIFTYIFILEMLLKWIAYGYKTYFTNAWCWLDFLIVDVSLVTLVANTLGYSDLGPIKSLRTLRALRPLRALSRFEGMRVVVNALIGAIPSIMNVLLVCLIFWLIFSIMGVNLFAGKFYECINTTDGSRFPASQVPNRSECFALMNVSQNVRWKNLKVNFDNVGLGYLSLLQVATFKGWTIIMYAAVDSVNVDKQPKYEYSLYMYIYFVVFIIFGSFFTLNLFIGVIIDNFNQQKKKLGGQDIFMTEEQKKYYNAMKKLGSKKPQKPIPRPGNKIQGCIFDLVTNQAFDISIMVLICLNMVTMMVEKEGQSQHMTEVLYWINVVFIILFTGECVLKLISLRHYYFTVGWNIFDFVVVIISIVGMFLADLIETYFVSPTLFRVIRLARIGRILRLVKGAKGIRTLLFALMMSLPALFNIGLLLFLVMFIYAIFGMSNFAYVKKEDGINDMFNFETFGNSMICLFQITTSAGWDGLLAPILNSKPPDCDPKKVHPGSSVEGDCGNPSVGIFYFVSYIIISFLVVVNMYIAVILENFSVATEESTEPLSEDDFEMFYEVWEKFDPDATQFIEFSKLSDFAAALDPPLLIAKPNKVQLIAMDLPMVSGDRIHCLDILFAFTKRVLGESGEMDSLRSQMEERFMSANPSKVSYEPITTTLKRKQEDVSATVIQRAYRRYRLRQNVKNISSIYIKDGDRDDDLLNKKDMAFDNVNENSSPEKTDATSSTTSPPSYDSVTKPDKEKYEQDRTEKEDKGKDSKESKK
Description: Whole-cell voltage clamp electrophysiology, manual patch clamp (marker b in Table of Examples). The class given is cell-based. Conditions: marker b: Manual patch clamp data; read-out: Nav 1.7 activity. An outline of the steps:
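Manual whole-cell patch clamp on cells expressing human NaV1.7, compounds applied by microperfusion. Protocol biased to inactivated-state block: holding −60 mV, hyperpolarizing step −120 mV for 100 ms, then depolarization to −20 mV for 25 ms, pulses at 0.1 Hz.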

Test [3] concerns the target T2, Nav 1.7. Description: Whole-cell voltage clamp electrophysiology, IonWorks Quattro (marker a in Table of Examples). The class given is cell-based. Conditions: marker a: IonWork Quattro data; read-out: Nav 1.7 activity.
From the text: a.IonWork Quattro data, b=Manual patch clamp data, c=Automated patch clamp data M=Method
Whole-Cell Voltage Clamp Electrophysiology Assay
as §1
(§3) Electrophysiological studies can be performed using automated or manual patch-clamp techniques. Automated patch-clamp instruments suitable for this work include the Ion Works HT (MDS), Ion Works Quattro (MDS), PatchLiner (Nanion technologies), Port-A-Patch (Nanion technologies), QPatch (Sophion) or any other suitable platform.
(§4) For recording in automated patch-clamp instruments, cells expressing the voltage-gated sodium channel subtype of interest are dispensed in appropriate chips (plates with more than one recording chambers each containing one or more apertures to generate whole-cell patches), as provided by the manufacturer. Typically, the whole-cell perforated patch configuration is used for probing the pharmacology of compounds in automated patch-clamp electrophysiology on sodium channels. Extracellular and intracellular buffers for such experiments are composed according to the literature, or according to the instructions provided by the manufacturer of the instruments. Test solutions, which contain the compounds to be tested, are applied to the cells expressing the sodium channel of interest by a pipetting system, typically integrated into the robots.
as §2

Test [4] addresses T1, Nav1.5. Description: Inhibition of Nav1.5 as measured using QPatch. The class given is cell-based.
From the text: as §1, §3, §4, §2
Inhibition of Nav1.5 by Compounds of formula (I) as measured using QPatch

For test [5], the target named is T2, Nav 1.7. Briefly: Whole-cell voltage clamp electrophysiology, automated patch clamp (marker c in Table of Examples). It is filed as cell-based. The settings on record: marker c: Automated patch clamp data; read-out: Nav 1.7 activity. The essentials: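 A voltage protocol weighted toward inactivated-state block was used to test compounds on stably expressing cells, with pulses from −65 mV holding to −10 mV test and −100 mV. Currents came from whole-cell automated patch-clamp recordings, either IonWorks Quattro or other automated instruments, usually in perforated-patch mode.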

In test [6] the test system is inflammatory pain induced by intraplantar injection of Complete Freund's Adjuvant. Description: FCA (Freund's Complete Adjuvant) test, model of inflammatory pain. It is filed as in vivo. Conditions: rat, 1 mg/kg p.o., tested 72 h post FCA injection. As for the experimental part: Compounds of formula (I) may show analgesic activity in the FCA (Freund's Complete Adjuvant) test in the rat, a model of inflammatory pain which is induced by intraplantar injection of Complete Freund's Adjuvant (Stein et al. Pharmac. Biochem. Behav., 1988, 31, 445-451). […] Thus, the local anesthetic effect may not mask the analgesic properties of the compounds (Scott et al., British Journal of Anaesthesia, 1988, 61, 165-8). […] All compounds were tested 72 h post FCA injection.

SMILES strings stand for the structures.

T1 sequence (Q14524 whole entry): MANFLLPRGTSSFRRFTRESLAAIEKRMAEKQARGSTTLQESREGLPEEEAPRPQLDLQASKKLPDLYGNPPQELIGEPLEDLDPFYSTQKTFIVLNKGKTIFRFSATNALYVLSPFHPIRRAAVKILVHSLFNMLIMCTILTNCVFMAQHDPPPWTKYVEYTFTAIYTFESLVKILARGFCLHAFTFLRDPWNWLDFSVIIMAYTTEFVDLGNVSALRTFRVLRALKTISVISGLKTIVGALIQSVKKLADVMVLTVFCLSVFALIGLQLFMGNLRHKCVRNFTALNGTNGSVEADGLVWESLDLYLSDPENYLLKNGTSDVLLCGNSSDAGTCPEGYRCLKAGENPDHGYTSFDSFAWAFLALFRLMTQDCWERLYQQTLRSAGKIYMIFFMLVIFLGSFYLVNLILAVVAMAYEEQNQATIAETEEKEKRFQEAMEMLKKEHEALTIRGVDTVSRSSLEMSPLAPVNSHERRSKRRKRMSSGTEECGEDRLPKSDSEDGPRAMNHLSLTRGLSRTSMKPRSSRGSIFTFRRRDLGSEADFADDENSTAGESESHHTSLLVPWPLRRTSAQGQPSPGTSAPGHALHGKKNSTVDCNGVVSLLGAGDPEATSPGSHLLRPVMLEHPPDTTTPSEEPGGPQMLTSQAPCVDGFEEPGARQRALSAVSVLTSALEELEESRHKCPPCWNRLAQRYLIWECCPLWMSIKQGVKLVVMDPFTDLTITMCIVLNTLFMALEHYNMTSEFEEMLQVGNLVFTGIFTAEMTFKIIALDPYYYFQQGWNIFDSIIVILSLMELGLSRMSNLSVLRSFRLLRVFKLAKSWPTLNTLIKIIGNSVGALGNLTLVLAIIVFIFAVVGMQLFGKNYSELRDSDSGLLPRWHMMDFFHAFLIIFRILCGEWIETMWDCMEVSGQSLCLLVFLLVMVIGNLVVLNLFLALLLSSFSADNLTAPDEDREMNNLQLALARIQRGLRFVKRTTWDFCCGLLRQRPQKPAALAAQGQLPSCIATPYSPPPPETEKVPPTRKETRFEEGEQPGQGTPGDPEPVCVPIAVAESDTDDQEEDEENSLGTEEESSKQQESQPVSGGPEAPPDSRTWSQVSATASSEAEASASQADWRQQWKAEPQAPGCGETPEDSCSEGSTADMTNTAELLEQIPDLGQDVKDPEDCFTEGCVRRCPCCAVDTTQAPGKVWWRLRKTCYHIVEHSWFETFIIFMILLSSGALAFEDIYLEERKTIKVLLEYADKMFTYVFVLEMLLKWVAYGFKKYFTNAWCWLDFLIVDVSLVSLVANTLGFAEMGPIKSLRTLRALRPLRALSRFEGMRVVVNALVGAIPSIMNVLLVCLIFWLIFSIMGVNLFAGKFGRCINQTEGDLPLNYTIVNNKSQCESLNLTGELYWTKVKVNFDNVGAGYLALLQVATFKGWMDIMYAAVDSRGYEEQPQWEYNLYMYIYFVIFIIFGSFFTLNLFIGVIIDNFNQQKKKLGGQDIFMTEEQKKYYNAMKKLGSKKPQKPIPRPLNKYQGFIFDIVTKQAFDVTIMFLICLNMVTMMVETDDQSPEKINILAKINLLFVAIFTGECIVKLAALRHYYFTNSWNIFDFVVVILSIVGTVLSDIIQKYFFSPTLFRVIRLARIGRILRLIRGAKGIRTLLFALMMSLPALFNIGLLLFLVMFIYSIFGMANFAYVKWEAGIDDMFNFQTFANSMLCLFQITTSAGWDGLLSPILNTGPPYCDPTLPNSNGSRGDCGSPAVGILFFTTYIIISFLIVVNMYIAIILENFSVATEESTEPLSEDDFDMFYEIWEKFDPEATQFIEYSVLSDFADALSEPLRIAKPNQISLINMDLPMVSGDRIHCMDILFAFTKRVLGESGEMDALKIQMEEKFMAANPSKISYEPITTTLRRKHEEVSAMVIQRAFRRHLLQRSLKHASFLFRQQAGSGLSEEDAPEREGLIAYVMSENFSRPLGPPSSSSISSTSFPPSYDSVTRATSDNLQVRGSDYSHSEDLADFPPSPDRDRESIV

For `CN(c1cccc(Cl)c1)c1nc(N)nc(-c2noc(-c3ccco3)n2)n1` [Example 7, 6-(5-Furan-2-yl-[1,2,4]oxadiazol-3-yl)-N-methyl-N-(3-chlorophenyl)-[1,3,5]triazine-2,4-diamine], the IC50 on Nav1.5 [1] stood at 0.847 µM; at Nav 1.7 [2], 0.187 µM. As to `CN(c1ccc(F)cc1)c1nc(N)nc(-c2noc(-c3ccco3)n2)n1` [Example 16, N-(4-Fluoro-phenyl)-6-(5-furan-2-yl-[1,2,4]oxadiazol-3-yl)-N-methyl-[1,3,5]triazine-2,4-diamine], the values for the IC50 against Nav1.5 [1] and at Nav 1.7 [2] were 1.05 µM and 0.264 µM, respectively. Consider `CN(c1nc(N)nc(-c2noc(-c3ccco3)n2)n1)c1ccccc1Cl` [Example 17, N-(2-Chloro-phenyl)-6-(5-furan-2-yl-[1,2,4]oxadiazol-3-yl)-N-methyl-[1,3,5]triazine-2,4-diamine], for which, on Nav 1.7 [3], the IC50 is < 5 µM. Regarding `Cc1ccccc1N(C)c1nc(N)nc(-c2noc(-c3ccco3)n2)n1` [Example 18, 6-(5-Furan-2-yl-[1,2,4]oxadiazol-3-yl)-N-methyl-N-o-tolyl-[1,3,5]triazine-2,4-diamine], the IC50 on Nav 1.7 [3] was < 5 µM. For `Cc1ccc(-c2nc(-c3nc(N)nc(N(C)c4ccccc4)n3)no2)o1` [Example 19, N-Methyl-6-[5-(5-methyl-furan-2-yl)-[1,2,4]oxadiazol-3-yl]-N-phenyl-[1,3,5]triazine-2,4-diamine], on Nav 1.7 [3], the IC50 worked out at 0.061 µM.

`CN(Cc1ccccc1)c1nc(N)nc(-c2noc(-c3ccco3)n2)n1` [Example 20, N-Benzyl-6-(5-furan-2-yl-[1,2,4]oxadiazol-3-yl)-N-methyl-[1,3,5]triazine-2,4-diamine]: at Nav 1.7 [3], the IC50 is < 3 µM. Regarding `CCN(c1ccccc1)c1nc(N)nc(-c2noc(-c3ccco3)n2)n1` [Example 21, N-Ethyl-6-(5-furan-2-yl-[1,2,4]oxadiazol-3-yl)-N-phenyl-[1,3,5]triazine-2,4-diamine], the IC50 on Nav1.5 [1] amounted to 2.06 µM; at Nav 1.7 [2] it was 0.249 µM. With `Nc1nc(-c2noc(-c3ccco3)n2)nc(N2CCc3ccccc32)n1` [Example 22, 4-(2,3-Dihydro-indol-1-yl)-6-(5-furan-2-yl-[1,2,4]oxadiazol-3-yl)-[1,3,5]triazin-2-ylamine], the IC50 on Nav 1.7 [3] was < 1 µM. Regarding `COc1cccc(-c2nc(-c3nc(N)nc(N(C)c4ccccc4)n3)no2)c1` [Example 24, 6-[5-(3-Methoxy-phenyl)-[1,2,4]oxadiazol-3-yl]-N-methyl-N-phenyl-[1,3,5]triazine-2,4-diamine], the IC50 on Nav 1.7 [3] was < 0.5 µM. Still for that read-out and setting: then `Nc1nc(Nc2cccc(Cl)c2)nc(-c2noc(-c3ccco3)n2)n1` [Example 32, N-(3-Chloro-phenyl)-6-(5-furan-2-yl-[1,2,4]oxadiazol-3-yl)-[1,3,5]triazine-2,4-diamine], with < 0.5 µM; and `CN(c1cccc(C(F)(F)F)c1)c1nc(N)nc(-c2noc(-c3ccco3)n2)n1` [Example 33], with < 1 µM. On to `CN(c1nc(N)nc(-c2noc(-c3ccco3)n2)n1)c1cccc(F)c1F` [Example 34, 6-(5-Furan-2-yl-[1,2,4]oxadiazol-3-yl)-N-methyl-N-(2,3-difluorophenyl)-[1,3,5]triazine-2,4-diamine], for which, at Nav 1.7 [3], the IC50 was < 0.5 µM. For `Nc1nc(Nc2ccccc2)nc(-c2noc(-c3ccccn3)n2)n1` [Example 39, N-Phenyl-6-(pyridin-2-yl-[1,2,4]oxadiazol-3-yl)-[1,3,5]triazine-2,4-diamine], the IC50 stood at 0.891 µM on Nav1.5 [4] and 0.319 µM at Nav 1.7 [2]. As for `Nc1nc(Nc2ccccc2)nc(-c2noc(-c3ccc(OCC(F)(F)F)nc3)n2)n1` [Example 41, 2-N-Phenyl-6-{5-[6-(2,2,2-trifluoroethoxy)pyridin-3-yl]-1,2,4-oxadiazol-3-yl}-1,3,5-triazine-2,4-diamine], the values for the IC50 against Nav1.5 [4] and on Nav 1.7 [5] were 0.334 µM and 0.673 µM, respectively.

In the case of `CN(c1ccccc1)c1nc(N)nc(-c2noc(-c3ncccc3Br)n2)n1` [Example 43, 6-[5-(3-Bromopyridin-2-yl)-[1,2,4]oxadiazol-3-yl]-N-methyl-N-phenyl-[1,3,5]triazine-2,4-diamine], the IC50 stood at 1.03 µM against Nav1.5 [4] and 0.102 µM at Nav 1.7 [5]. On to `CN(c1ccccc1)c1nc(N)nc(-c2noc(C(=O)NCc3ccccc3)n2)n1` [Example 71, 3-[4-Amino-6-(methyl-phenyl-amino)-[1,3,5]triazin-2-yl]-[1,2,4]oxadiazole-5-carboxylic acid benzylamide], for which the IC50 against Nav1.5 [4] amounted to 3.02 µM; at Nav 1.7 [2], 0.814 µM. For the compound `CN(c1ccccc1)c1nc(N)nc(-c2noc(C(=O)NC3CCCC3)n2)n1` [Example 72, 3-[4-Amino-6-(methyl-phenyl-amino)-[1,3,5]triazin-2-yl]-[1,2,4]oxadiazole-5-carboxylic acid cyclopentylamide], the results for the IC50 on Nav1.5 [4] and on Nav 1.7 [5] were 5.96 µM and 0.288 µM, respectively. With `CN(c1cccc(F)c1)c1nc(N)nc(-c2noc(-c3ccccc3Cl)n2)n1` [Example 86, 6-[5-(2-Chloro-phenyl)-[1,2,4]oxadiazol-3-yl]-N-(3-fluoro-phenyl)-N-methyl-[1,3,5]triazine-2,4-diamine], the IC50 worked out at 0.3 µM against Nav1.5 [1] and 0.126 µM at Nav 1.7 [2].

In the case of `CCN(c1ccccc1)c1nc(N)nc(-c2noc(-c3ccccc3OC)n2)n1` [Example 95, N-Ethyl-6-[5-(2-methoxy-phenyl)-[1,2,4]oxadiazol-3-yl]-N-phenyl-[1,3,5]triazine-2,4-diamine], the IC50 stood at 3.7 µM against Nav1.5 [1] and 0.046 µM at Nav 1.7 [2]. For `CN(c1nc(N)nc(-c2noc(-c3ccco3)n2)n1)c1cc(Cl)ccc1F` [Example 103, N-(5-Chloro-2-fluoro-phenyl)-6-(5-furan-2-yl-[1,2,4]oxadiazol-3-yl)-N-methyl-[1,3,5]triazine-2,4-diamine], in that order: 0.215 µM and 0.042 µM. In the case of `CN(c1ccccc1)c1nc(N)nc(-c2noc(-c3nccs3)n2)n1` [Example 125, N-Methyl-N-pheny!-6-(5-thiazol-2-yl-[1,2,4]oxadiazol-3-yl)-[1,3,5]triazine-2,4-diamine], the values for the IC50 against Nav1.5 [1] and at Nav 1.7 [2] were 0.917 µM and 0.56 µM, respectively. Moreover, the “analgesic efficacy in FCA test” value in test [6] is on record as “efficacious”.

The values above are taken from patent publication US8895733B2 (Novartis AG, priority 2010, dated 2014).
